This note sets out measurements from patent US7078222B2, “Microorganism for producing riboflavin and method for producing riboflavin using the same” (CJ Corp., priority 2002, dated 2006).

Structures are written as SMILES. Some results are limits rather than exact numbers.

In test [1] the test system is Bacillus subtilis AS5. The test is described as follows: Evaluation of resistance against DL-β-hydroxynorvaline (growth in DL-β-hydroxynorvaline-containing minimal medium). The test is classed as cell-based. Details: key to growth of strain: +: growth; −: not growth. The note with it: for growth of strain: 30° C., 5 days. How it is done:
(§1) In this example, in order to evaluate resistance to DL-β-hydroxynorvaline, the Bacillus subtilis CJKB0002 (KCCM-10446) of Example 1 and the Bacillus subtilis AS5 as the parent strain were cultured in various concentrations of DL-β-hydroxynorvaline-containing media. In detail, respective strains were inoculated onto DL-β-hydroxynorvaline-containing media as shown in Table 1 and cultured at 30° C. for 5 days. In this case, the concentration of DL-β-hydroxynorvaline ranged from 0 to 350 mg/l.

The test system of test [2] is Bacillus subtilis CJKB0002 (KCCM-10446). The test is described as above. Details: key to growth of strain: +: growth; −: not growth. The note with it: for growth of strain: 30° C., 5 days. The test is classed as cell-based. How it is done:
as §1

As to `CCC(O)C(N)C(=O)O` (racemic) [DL-β-hydroxynorvaline], the growth of strain result in test [1] (50 mg/l DL-β-hydroxynorvaline) is “+”; in test [1] (100 mg/l DL-β-hydroxynorvaline) it was “−”; in test [1] (200 mg/l DL-β-hydroxynorvaline), “−”; in test [1] (250 mg/l DL-β-hydroxynorvaline) it was “−”; in test [1] (300 mg/l DL-β-hydroxynorvaline), “−”; in test [1] (350 mg/l DL-β-hydroxynorvaline) it was “−”. For the same compound, the growth of strain result is given as “+” in test [2] (250 mg/l DL-β-hydroxynorvaline), “−” in test [2] (300 mg/l DL-β-hydroxynorvaline) and “−” in test [2] (350 mg/l DL-β-hydroxynorvaline). For the same compound, in test [1] (parent strain AS5), the “concentration of DL-β-hydroxynorvaline in which the strain cannot grow” value is “more than 50 mg/l”. For the same compound, in test [2] (CJKB0002 versus AS5), the “enhanced resistance to threonine analogue compared to Bacillus subtilis AS5” value is listed as “five times”. Moreover, in test [2] (mutant CJKB0002), the “concentration of DL-β-hydroxynorvaline in which the strain can grow” value is no more than 250 mg/L.
